Test results reported in the supplement of paper PMC10307832.

What was measured:
Experiment in all cases: relative viability (nuclei count vs DMSO), 5 days (fraction); higher = more cells survive
Vorinostat + Lapatinib = compound: O=C(CCCCCCC(=O)Nc1ccccc1)NO [Vorinostat] + CS(=O)(=O)CCNCc1ccc(-c2ccc3ncnc(Nc4ccc(OCc5cccc(F)c5)c(Cl)c4)c3c2)o1 [Lapatinib] (partner 2 µM)
Summary of the method: (§1)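 Five library-drug doses in √10 steps were combined with a fixed anchor-drug dose, or a single drug was given alone, by pin tool to lung cancer cell lines in 1536-well plates the day after seeding. Nuclei were stained and counted after 5 days. Relative viability is the nuclei count in treated wells over that in vehicle wells, taken as the median of duplicate plates.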

Vorinostat + Tozasertib = compound: O=C(CCCCCCC(=O)Nc1ccccc1)NO [Vorinostat] + Cc1cc(Nc2cc(N3CCN(C)CC3)nc(Sc3ccc(NC(=O)C4CC4)cc3)n2)n[nH]1 [Tozasertib] (partner 0.1 µM)
Summary of the method: as §1

Vorinostat + Foretinib = compound: O=C(CCCCCCC(=O)Nc1ccccc1)NO [Vorinostat] + COc1cc2c(Oc3ccc(NC(=O)C4(C(=O)Nc5ccc(F)cc5)CC4)cc3F)ccnc2cc1OCCCN1CCOCC1 [Foretinib] (partner 0.25 µM)
Summary of the method: as §1

Vorinostat + Navitoclax = compound: O=C(CCCCCCC(=O)Nc1ccccc1)NO [Vorinostat] + CC1(C)CCC(c2ccc(Cl)cc2)=C(CN2CCN(c3ccc(C(=O)NS(=O)(=O)c4ccc(N[C@H](CCN5CCOCC5)CSc5ccccc5)c(S(=O)(=O)C(F)(F)F)c4)cc3)CC2)C1 [Navitoclax] (partner 0.5 µM)
Summary of the method: as §1

Vorinostat + Alpelisib = compound: O=C(CCCCCCC(=O)Nc1ccccc1)NO [Vorinostat] + Cc1nc(NC(=O)N2CCC[C@H]2C(N)=O)sc1-c1ccnc(C(C)(C)C(F)(F)F)c1 [Alpelisib] (partner 2 µM)
Summary of the method: as §1

Row | Cell Line | relative viability (Vorinostat + Lapatinib; first compound 0.253 µM) | relative viability (Vorinostat + Lapatinib; first compound 0.8 µM) | relative viability (Vorinostat + Lapatinib; first compound 2.53 µM) | relative viability (Vorinostat + Lapatinib; first compound 8 µM) | relative viability (Vorinostat + Tozasertib; first compound 0.253 µM) | relative viability (Vorinostat + Tozasertib; first compound 0.8 µM) | relative viability (Vorinostat + Tozasertib; first compound 2.53 µM) | relative viability (Vorinostat + Tozasertib; first compound 8 µM) | relative viability (Vorinostat + Foretinib; first compound 0.253 µM) | relative viability (Vorinostat + Foretinib; first compound 0.8 µM) | relative viability (Vorinostat + Foretinib; first compound 2.53 µM) | relative viability (Vorinostat + Foretinib; first compound 8 µM) | relative viability (Vorinostat + Navitoclax; first compound 0.253 µM) | relative viability (Vorinostat + Navitoclax; first compound 0.8 µM) | relative viability (Vorinostat + Navitoclax; first compound 2.53 µM) | relative viability (Vorinostat + Navitoclax; first compound 8 µM) | relative viability (Vorinostat + Alpelisib; first compound 0.253 µM) | relative viability (Vorinostat + Alpelisib; first compound 0.8 µM) | relative viability (Vorinostat + Alpelisib; first compound 2.53 µM) | relative viability (Vorinostat + Alpelisib; first compound 8 µM)
1 | NCI-H1755 | 1.05 | 1.03 | 0.28 | 0.154 | 0.613 | 0.51 | 0.319 | 0.179 | 0.997 | 0.971 | 0.525 | 0.202 | 1.01 | 0.98 | 0.369 | 0.215 | 1.03 | 0.92 | 0.326 | 0.137
2 | LXF-289 | 0.985 | 0.859 | 0.468 | 0.116 | 0.209 | 0.165 | 0.0836 | 0.0447 | 0.981 | 0.97 | 0.3 | 0.0942 | 1.04 | 0.963 | 0.279 | 0.0872 | 1.1 | 1.04 | 0.351 | 0.0687
3 | NCI-H838 | 1.44 | 0.863 | 0.425 | 0.148 | 0.263 | 0.227 | 0.172 | 0.111 | 1.33 | 1.05 | 0.51 | 0.173 | 1.34 | 1.15 | 0.395 | 0.195 | 1.23 | 1.1 | 0.605 | 0.185
4 | NCI-H1666 | 0.606 | 0.339 | 0.228 | 0.167 | 0.499 | 0.346 | 0.307 | 0.259 | 0.982 | 0.906 | 0.387 | 0.349 | 0.845 | 0.652 | 0.322 | 0.235 | 0.962 | 0.586 | 0.245 | 0.156
5 | LC-2-ad | 0.924 | 0.67 | 0.253 | 0.0672 | 0.418 | 0.303 | 0.217 | 0.147 | 0.984 | 0.681 | 0.268 | 0.145 | 0.539 | 0.277 | 0.102 | 0.113 | 0.816 | 0.644 | 0.0538 | 0.0781
6 | LK-2 | 1.19 | 0.673 | 0.209 | 0.108 | 0.179 | 0.178 | 0.157 | 0.125 | 1.03 | 0.896 | 0.28 | 0.137 | 0.939 | 0.585 | 0.169 | 0.0764 | 1.07 | 0.847 | 0.234 | 0.125
7 | LOU-NH91 | 0.843 | 0.799 | 0.688 | 0.346 | 0.615 | 0.481 | 0.36 | 0.295 | 1.08 | 0.917 | 0.758 | 0.347 | 0.791 | 0.568 | 0.313 | 0.233 | 0.792 | 0.676 | 0.452 | 0.322
8 | EPLC-272H | 0.788 | 0.761 | 0.278 | 0.14 | 0.289 | 0.249 | 0.189 | 0.149 | 0.581 | 0.512 | 0.0722 | 0.133 | 0.984 | 1 | 0.242 | 0.0967 | 0.928 | 0.893 | 0.396 | 0.175
9 | HCC-366 | 1.16 | 0.741 | 0.0772 | 0.0322 | 0.0967 | 0.0579 | 0.033 | 0.031 | 1.03 | 0.333 | 0.0524 | 0.0624 | 1.03 | 0.9 | 0.135 | 0.0208 | 0.456 | 0.36 | 0.0363 | 0.0122
10 | H3255 | 0.24 | 0.17 | 0.141 | 0.101 | 0.705 | 0.525 | 0.277 | 0.219 | 0.859 | 0.868 | 0.812 | 0.223 | 0.595 | 0.598 | 0.2 | 0.0872 | 0.874 | 0.714 | 0.414 | 0.209
11 | RERF-LC-KJ | 0.938 | 0.781 | 0.733 | 0.227 | 0.442 | 0.318 | 0.262 | 0.213 | 1 | 0.791 | 0.743 | 0.248 | 1.25 | 0.754 | 0.251 | 0.291 | 0.862 | 0.898 | 0.457 | 0.234
12 | NCI-H647 | 1.49 | 0.947 | 0.163 | 0.0687 | 0.279 | 0.183 | 0.078 | 0.0319 | 1.08 | 1.04 | 0.507 | 0.0683 | 1.14 | 0.759 | 0.149 | 0.0271 | 1.51 | 0.966 | 0.254 | 0.0332
13 | NCI-H1915 | 1.03 | 0.962 | 0.673 | 0.0743 | 0.426 | 0.267 | 0.118 | 0.104 | 1.14 | 1.05 | 0.474 | 0.137 | 0.792 | 0.762 | 0.479 | 0.0857 | 1.16 | 1 | 0.4 | 0.0675
14 | NCI-H2228 | 1.34 | 0.519 | 0.261 | 0.122 | 0.199 | 0.103 | 0.0837 | 0.0871 | 0.917 | 0.537 | 0.311 | 0.0906 | 0.953 | 0.809 | 0.473 | 0.132 | 0.945 | 0.461 | 0.184 | 0.113
15 | NCI-H2087 | 1.23 | 0.962 | 0.352 | 0.178 | 0.262 | 0.14 | 0.0617 | 0.0825 | 1.34 | 0.615 | 0.153 | 0.0924 | 1.05 | 0.959 | 0.238 | 0.189 | 1.03 | 1.06 | 0.393 | 0.134
